The source of these data is publication PMC4819005 (ACS chemical biology, 2015).

In data set [1] the target is PPARγ. Particulars: cited from earlier work.
The subject of data set [2] is 3T3-L1 cells. As to the kind of experiment: In vitro adipocyte differentiation, Oil Red O staining for lipid accumulation. The class given is cell-based. Particulars: differentiated 3T3-L1 preadipocytes, treated 2 or 3 days.
Data set [3] deals with aP2 (FABP4) mRNA in SVF cells. Nature of the data set: qPCR of PPARγ target gene aP2. The class given is cell-based, murine. As to conditions: 5 μM compound, 3 days, normalized to GAPDH.
The nature of data set [4]: Aggregation seen in SPR running buffer. Type of data set: physicochemical. Particulars: PBS + 5%DMSO.

Structures are written as SMILES. Peptide text beside a SMILES is read from it.

For `N[C@@H](Cc1c[nH]c2ccccc12)C(=O)N[C@@H](CCC(=O)O)C(=O)O` [G3335] (H-Trp-Glu-OH), in data set [1], the kd is 0.028 s⁻¹.
Take `CCC(NC(=O)c1ccc2c(ccn2S(=O)(=O)c2cccc3ccccc23)c1)c1ccccc1` (stereo not shown) [SR2067, 1-(Naphthalen-1-ylsulfonyl)-N-(1-phenylpropyl)-1H-indole-5-carboxamide]: in data set [2], the “oil red staining for lipid accumulation” value is “less than that of the full agonist rosiglitazone but higher than that of the antagonist SR1664”. For the same compound, the “expression levels of the PPARγ target gene aP2” value in data set [3] is reported as “lower than those observed in cells treated with the full agonist rosiglitazone but higher than those in cells exposed to the antagonist SR1664”.
With `CN(CCOc1ccc(CC2SC(=O)NC2=O)cc1)c1ccccn1` (stereo not shown) [rosiglitazone, Rosiglitazone], the “concentration above which concentration-dependent aggregation occurs” value in data set [4] is reported as “above 30 μM”.
